According to article PMC9920246, “Entinostat-Bortezomib Hybrids against Multiple Myeloma” (Molecules, 2023):
Like-named read-outs stand apart in the source and are kept apart here.

Tests used:
RPMI 8226 cells = assay: Antiproliferative assay (XTT, 72 h); assay type: cell-based, human; conditions: for IC50: RPMI 8226 cells, 72 h, XTT, mean ± SD, n = 3
RPMI 8226/BTZ100 cells = assay: cells; assay type: cell-based, human; conditions: for IC50: read-out: IC50 Value Antiproliferative Activity RPMI 8226/BTZ100
[1] = tested on: 3D co-culture spheroids containing RPMI 8226 cells and mesenchymal stem cells (MSC) in a 5:1 ratio; assay: Antiproliferative assay in 3D co-culture spheroids (CellTiter-Glo 3D, 48 h); assay type: cell-based, human; conditions: RPMI 8226 + MSC 5:1 spheroids, mean ± SD, n = 3
Protocol: The multiple myeloma human plasma cells RPMI 8226 were purchased from American Type Culture Collection (ATCC, Manassas, VA, USA) and cultured in RPMI 1640 medium (Gibco, Paisley, UK) supplemented with 50 µg/mL streptomycin sulfate, 50 U/mL penicillin G sodium salt (Gibco, Grand Island, NY, USA) and 10% fetal bovine serum (FBS) (Biowest, Nuaillé, France). […] Human MSC from the bone marrow were purchased from PromoCell and were cultured in Mesenchymal Stem Cell Growth Medium 2 (PromoCell, Heidelberg, Germany) supplemented with 100 μg/mL streptomycin sulfate and 100 U/mL penicillin G sodium salt.
RPMI 8226 cells and MSC were mixed in a 5:1 ratio. The cell mixture was centrifuged, and medium containing 20% collagen I (Gibco) adjusted to pH 7 was added to the cell pellet. Five μL drops were plated in each well of an ice-cold 96-well ultra-low attachment U-bottom plate (Corning, Kennebunk, MA, USA) and the plate was incubated for 30 min at 37 °C and 5% CO2 atmosphere. After the incubation, 200 μL of RPMI 1640 medium (Gibco) supplemented with 50 µg/mL streptomycin sulfate, 50 U/mL penicillin G sodium salt (Gibco) and 10% FBS (Biowest) was added to each well. The 3D spheroids were formed after 48 h.
RPMI 8226 and RPMI 8226/BTZ100 cells were seeded in 96-well plates (Costar, Kennebunk, MA, USA) at a density of 15,000 cells per well and directly treated for 72 h with the various compounds using increasing concentrations (0.31–2000 nM). […] Following the treatment, 100 μL of medium was carefully removed from each well and collagenase (1.5 μL of a 100 mg/mL solution, Sigma) was added. The plate was shaken at 37 °C for 10 min at 350 rpm. Then, 100 μL of CellTiter-Glo 3D reagent (Promega, Fitchburg, WI, USA) was added to each well. The plate was incubated for 5 min at 37 °C under agitation at 250 rpm, followed by 25 min at room temperature without agitation. Finally, the luminescence was measured using a Cytation 3 plate reader (BioTek). The percentage of cell proliferation and calculation of the IC50 value were determined as previously described. Each compound was tested in triplicate in three independent experiments.

26S proteasome = target: T1, 26S proteasome (Homo sapiens, UniProt P28074); assay: Proteasome inhibitory activity (Suc-LLVY-amc) in RPMI 8226 cell lysate; assay type: biochemical
T1 sequence (P28074 60-263): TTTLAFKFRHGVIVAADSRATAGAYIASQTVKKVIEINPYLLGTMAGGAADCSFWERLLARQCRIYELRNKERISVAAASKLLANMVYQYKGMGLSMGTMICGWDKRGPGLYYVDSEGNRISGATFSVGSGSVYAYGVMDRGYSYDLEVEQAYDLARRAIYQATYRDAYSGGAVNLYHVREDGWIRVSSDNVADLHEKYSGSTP
Protocol: RPMI 8226 cells (1 × 10^6 cells/mL) were collected, centrifuged, and washed twice with cold PBS (Gibco). The supernatant was discarded, and 200 μL of ice-cold lysis buffer (NP40 cell lysis buffer (Invitrogen, Eugene, OR, USA), supplemented with 1 mM PMSF (Sigma) and protease inhibitor cocktail (Sigma), was added to the pellet. Cells were kept on ice for 30 min and vortexed every 10 min. Samples were then centrifuged at 4 °C for 10 min at 16,000× g. Supernatant containing the proteins was collected. Protein quantification was performed using the Coomassie (Bradford) Protein Assay Kit (ThermoFisher, Waltham, MA, USA) following the manufacturer instructions. In each well of a 96-well black plate (ThermoFisher), 10 µg of proteins were mixed with assay buffer (50 mM Tris-HCl, pH 7.5, 40 mM KCl, 5 mM MgCl2, 0.5 mM ATP, 1 mM DTT, 0.5 mg/mL BSA) in 180 µL total volume. […] The plate was then incubated for 30 min at 37 °C. After incubation, the reaction was started by adding the fluorometric peptide substrate Suc-LLVY-amc (Bio-Techne, Minneapolis, MN, USA) at a final concentration of 100 µM, except for the blank wells. Following 1 h incubation at 37 °C in the dark, the fluorescence signal was red (excitation: 380 nm, emission: 440–460 nm) using a Cytation 3 plate reader (BioTek). The percentage of 26S proteasome activity was measured by comparing the fluorescence of the sample treated with the vehicle control wells and multiplied by 100. The IC50 value was calculated as mentioned above, and each compound was tested in triplicate in three independent experiments.

HDAC = HDAC inhibitory activity in RPMI 8226 cells (MAL substrate, UHPLC-MS); assay type: cell-based, human; conditions: 8 h; for Inhibition of HDAC activity: 10 µM
Protocol: RPMI 8226 cells were seeded in 96-well plates (Costar) at a density of 15,000 cells per well in 25 µL of medium containing the HDAC substrate N-(4-methyl-7-aminocoumarinyl)-Nα-(t-butoxycarbonyl)-Nω-acetyllysineamide (21 µM, MAL, Sigma). The cells were directly treated with the compounds at 10 µM or with Ent (0.4–250 µM) for 8 h to obtain a final volume of 50 µL. […] Following the incubation, the reaction was stopped by adding 10 µL of 6X RIPA buffer, supplemented with protease inhibitor (Sigma). Then, 160 µL of cold acetonitrile were added and the plate was placed for 10 min at −80 °C. The plate was centrifuged at 5000× g for 10 min at 4 °C, and the supernatant was transferred into a UHPLC-adapted 96-well plate (Nunc 96-well plate conical bottom, ThermoFisher) and sealed. The substrate (MAL) and its deacetylated product (dMAL) were measured using a UHPLC-MS method as previously described. The percentage of HDAC inhibition is given by 100 − [(tested sample × 100/control sample)], and the dose-response curve of Ent was established.

[2] = 26S proteasome in RPMI 8226 cell lysate, 30 min preincubation, Suc-LLVY-amc 100 µM, mean ± SD, n = 3; read-out: IC50 Value PI Activity
[3] = RPMI 8226 cells resistant to BTZ, 72 h, XTT, mean ± SD, n = 3
[4] = read-out: IC50 Value PI Activity; 26S proteasome in RPMI 8226 cell lysate, 30 min preincubation, Suc-LLVY-amc 100 µM, mean ± SD, n = 3

| SMILES | IC50 (RPMI 8226 cells; Homo sapiens) | IC50 (RPMI 8226/BTZ100 cells; Homo sapiens, RPMI-8226, 72 h) | IC50 ([1]; Homo sapiens) | IC50 (26S proteasome; [2]) | Inhibition of HDAC activity (HDAC) | IC50 (RPMI 8226 cells) | IC50 (RPMI 8226/BTZ100 cells; [3]) | IC50 [1] | IC50 (26S proteasome; [4]) | other results |
| --- | --- | --- | --- | --- | --- | --- | --- | --- | --- | --- |
| CC(C)C[C@H](NC(=O)[C@@H](Cc1ccccc1)NC(=O)c1cnc(C(=O)NCc2ccc(C(=O)Nc3ccccc3N)cc2)cn1)B1OC2CC3CC(C3(C)C)[C@@]2(C)O1 (stereo partly drawn) [Compound 5, N^2-(4-((2-aminophenyl)carbamoyl)benzyl)-N^5-((2R)-1-(((1R)-3-methyl-1-((3aR)-3a,5,5-trimethylhexahydro-4,6-methanobenzo[d][1,3,2]dioxaborol-2-yl)butyl)amino)-1-oxo-3-phenylpropan-2-yl)pyrazine-2,5-dicarboxamide] | 25.2 ± 2.2 nM | 203 ± 36.1 nM | 65.1 ± 14.1 nM | 14.8 ± 2.5 nM |  |  |  |  |  | Increased resistance (RPMI 8226/BTZ100 vs. RPMI 8226) (RPMI 8226/BTZ100 cells; ratio of IC50 in resistant vs. parental cells): 8.0 fold |
| Nc1ccccc1NC(=O)c1ccc(CNC(=O)OCc2cccnc2)cc1 [Ent, entinostat] | 329 ± 25.7 nM | 562 ± 51.7 nM | 349 ± 133 nM |  | 51% |  |  |  |  | IC50 (HDAC; 0.4–250 µM, read-out: HDAC inhibition IC50): 9300 ± 700 nM |
| CC(C)CC(NC(=O)C(Cc1ccccc1)NC(=O)CCC(=O)NCc1ccc(C(=O)Nc2ccccc2N)cc1)B1OC2CC3CC(C3(C)C)C2(C)O1 [Compound 1, N^1-(4-((2-aminophenyl)carbamoyl)benzyl)-N^4-((2R)-1-(((1R)-3-methyl-1-((3aR)-3a,5,5-trimethylhexahydro-4,6-methanobenzo[d][1,3,2]dioxaborol-2-yl)butyl)amino)-1-oxo-3-phenylpropan-2-yl)succinimide] | 678 ± 42.5 nM |  |  | 10.3 ± 2.7 nM |  |  |  |  |  |  |
| CC(C)C[C@H](NC(=O)[C@@H](Cc1ccc(N(CCCl)CCCl)cc1)NC(=O)c1cnc(C(=O)Nc2ccccc2N)cn1)B1OC2CC3CC(C3(C)C)[C@]2(C)O1 (stereo partly drawn) [Compound 11, N^2-(2-aminophenyl)-N^5-((2R)-3-(4-(bis(2-chloroethyl)amino)phenyl)-1-(((1R)-3-methyl-1-((3aS)-3a,5,5-trimethylhexahydro-4,6-methanobenzo[d][1,3,2]dioxaborol-2-yl)butyl)amino)-1-oxopropan-2-yl)pyrazine-2,5-dicarboxamide] |  |  |  |  | 25% | 22.9 ± 2.6 nM | 462 ± 107 nM | 39.9 ± 12.1 nM | > 50 nM | Fold less active than compound 3 in RPMI 8226 cells (RPMI 8226 cells; compared to compound 3): ~2.4 times |
| CC(C)C[C@H](NC(=O)[C@@H](Cc1ccccc1)NC(=O)Cc1ccc(C(=O)Nc2ccc(F)cc2N)cc1)B1OC2CC3CC(C3(C)C)[C@@]2(C)O1 (stereo partly drawn) [Compound 7, N-(2-amino-4-fluorophenyl)-4-(2-(((2R)-1-(((1R)-3-methyl-1-((3aR)-3a,5,5-trimethyl-hexahydro-4,6-methanobenzo[d][1,3,2]dioxaborol-2-yl)butyl)amino)-1-oxo-3-phenylpropan-2-yl)amino)-2-oxoethyl)benzamide] | 31.4 ± 1.7 nM | 831 ± 139 nM | 89.3 ± 13.6 nM | 7.2 ± 1.7 nM | 37% |  |  |  |  |  |
| CC(C)C[C@H](NC(=O)[C@@H](Cc1ccc(N(CCCl)CCCl)cc1)NC(=O)c1cnc(Cl)cn1)B1OC2CC3CC(C3(C)C)[C@]2(C)O1 (stereo partly drawn) [Compound 9, N-((2R)-3-(4-(bis(2-chloroethyl)amino)phenyl)-1-(((1R)-3-methyl-1-((3aS)-3a,5,5-trimethylhexahydro-4,6-methanobenzo[d][1,3,2]dioxaborol-2-yl)butyl)amino)-1-oxopropan-2-yl)-5-chloropyrazine-2-carboxamide] |  |  |  |  |  | 37.6 ± 1.1 nM | 1030 ± 205 nM | 188 ± 42.5 nM | > 50 nM |  |
| CC(C)C[C@H](NC(=O)[C@@H](Cc1ccccc1)NC(=O)c1ccc(C(=O)NCc2ccc(C(=O)Nc3ccccc3N)cc2)cc1)B1OC2CC3CC(C3(C)C)[C@@]2(C)O1 (stereo partly drawn) [Compound 4, N^1-(4-((2-aminophenyl)carbamoyl)benzyl)-N^4-((2R)-1-(((1R)-3-methyl-1-((3aR)-3a,5,5-trimethylhexahydro-4,6-methanobenzo[d][1,3,2]dioxaborol-2-yl)butyl)amino)-1-oxo-3-phenylpropan-2-yl)terephthalamide] | 802 ± 72.7 nM |  |  | > 50 nM |  |  |  |  |  |  |
| CC(C)C[C@H](NC(=O)c1cnc(C(=O)Nc2ccccc2N)cn1)B1OC2CC3CC(C3(C)C)[C@]2(C)O1 (stereo partly drawn) [Compound 10, N^2-(2-aminophenyl)-N^5-((1R)-3-methyl-1-((3aS)-3a,5,5-trimethylhexahydro-4,6-methanobenzo[d][1,3,2]dioxaborol-2-yl)butyl)pyrazine-2,5-dicarboxamide] | > 2000 nM |  |  | > 50 nM |  |  |  |  |  |  |
| CC(C)C[C@H](NC(=O)[C@@H](Cc1ccccc1)NC(=O)Cc1ccc(C(=O)Nc2ccccc2N)cc1)B1OC2CC3CC(C3(C)C)[C@@]2(C)O1 (stereo partly drawn) [Compound 6, N-(2-aminophenyl)-4-(2-(((2R)-1-(((1R)-3-methyl-1-((3aR)-3a,5,5-trimethylhexahydro-4,6-methanobenzo[d][1,3,2]dioxaborol-2-yl)butyl)amino)-1-oxo-3-phenylpropan-2-yl)amino)-2-oxoethyl)benzamide] | 337 ± 49.4 nM |  |  | > 50 nM |  |  |  |  |  |  |
| CC(C)C[C@H](NC(=O)[C@@H](Cc1ccc(N(CCCl)CCCl)cc1)NC(=O)c1cnccn1)B1OC2CC3CC(C3(C)C)[C@]2(C)O1 (stereo partly drawn) [Compound 8, N-((2R)-3-(4-(bis(2-chloroethyl)amino)phenyl)-1-(((1R)-3-methyl-1-((3aS)-3a,5,5-trimethylhexahydro-4,6-methanobenzo[d][1,3,2]dioxaborol-2-yl)butyl)amino)-1-oxopropan-2-yl)pyrazine-2-carboxamide] |  |  |  |  |  | 19.6 ± 0.4 nM | 1010 ± 88.6 nM | 30 ± 1.6 nM | 12.1 ± 1.1 nM |  |
